Laboratory results reported in the kinase profiling compilation of Christmann-Franck et al. (2016).
One block for each compound: values may come before it.

How the values were obtained:
Assay in all cases: radiometric filter-binding kinase assay
BRSK1 (human) = BRSK1 (human) (UniProt Q8TDC3)
BRSK2 (human) = BRSK2 (human) (UniProt Q8IWQ3)
CAMKK2 (human) = CAMKK2 (human) (UniProt Q96RR4)
DAPK1 (human) = DAPK1 (human) (UniProt P53355)
DYRK1A (human) = DYRK1A (human) (UniProt Q13627)
EEF2K (human) = EEF2K (human) (UniProt O00418)
EPHB4 (human) = EPHB4 (human) (UniProt P54760)
ERBB4 (human) = ERBB4 (human) (UniProt Q15303)
FGFR1 (human) = FGFR1 (human) (UniProt P11362)
GSK3B (human) = GSK3B (human) (UniProt P49841)
HIPK3 (human) = HIPK3 (human) (UniProt Q9H422)
IGF1R (human) = IGF1R (human) (UniProt P08069)
IKBKE (human) = IKBKE (human) (UniProt Q14164)
MAP2K2 (human) = MAP2K2 (human) (UniProt P36507)
MAP2K6 (human) = MAP2K6 (human) (UniProt P52564)
MAP3K5 (human) = MAP3K5 (human) (UniProt Q99683)
MAPK12 (human) = MAPK12 (human) (UniProt P53778)
MAPK13 (human) = MAPK13 (human) (UniProt O15264)
MAPK3 (human) = MAPK3 (human) (UniProt P27361)
MAPK9 (human) = MAPK9 (human) (UniProt P45984)
MAPKAPK2 (human) = MAPKAPK2 (human) (UniProt P49137)
MAPKAPK5 (human) = MAPKAPK5 (human) (UniProt Q8IW41)
MARK1 (human) = MARK1 (human) (UniProt Q9P0L2)
MELK (human) = MELK (human) (UniProt Q14680)
MKNK1 (human) = MKNK1 (human) (UniProt Q9BUB5)
PAK7 (human) = PAK7 (human) (UniProt Q9P286)
PHKG1 (human) = PHKG1 (human) (UniProt Q16816)
PIM1 (human) = PIM1 (human) (UniProt P11309)
PIM2 (human) = PIM2 (human) (UniProt Q9P1W9)
PIM3 (human) = PIM3 (human) (UniProt Q86V86)
PRKAA1 or PRKAA2 (rat) = conditions: accession and sequence are those of the human protein
PRKACA (human) = PRKACA (human) (UniProt P17612)
PRKCZ (human) = PRKCZ (human) (UniProt Q05513)
[1] = tested on: SGK1 (human), O00141 [S422D]
STK3 (human) = STK3 (human) (UniProt Q13188)
SYK (human) = SYK (human) (UniProt P43405)

Chain of SGK1 (human), O00141 [S422D] (O00141 whole entry S422D, looked up): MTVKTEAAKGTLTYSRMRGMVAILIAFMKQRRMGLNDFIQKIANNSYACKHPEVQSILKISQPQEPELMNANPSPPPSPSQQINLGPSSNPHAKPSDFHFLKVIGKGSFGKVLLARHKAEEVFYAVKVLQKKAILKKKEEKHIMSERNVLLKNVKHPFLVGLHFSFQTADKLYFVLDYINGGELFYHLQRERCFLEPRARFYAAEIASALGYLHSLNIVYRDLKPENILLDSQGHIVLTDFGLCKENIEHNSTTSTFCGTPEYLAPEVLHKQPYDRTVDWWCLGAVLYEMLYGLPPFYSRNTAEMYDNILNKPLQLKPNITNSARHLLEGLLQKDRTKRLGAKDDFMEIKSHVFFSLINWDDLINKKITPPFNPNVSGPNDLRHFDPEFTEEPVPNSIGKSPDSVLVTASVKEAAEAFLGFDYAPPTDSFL
Chain of IGF1R (human) (P08069 whole entry, looked up): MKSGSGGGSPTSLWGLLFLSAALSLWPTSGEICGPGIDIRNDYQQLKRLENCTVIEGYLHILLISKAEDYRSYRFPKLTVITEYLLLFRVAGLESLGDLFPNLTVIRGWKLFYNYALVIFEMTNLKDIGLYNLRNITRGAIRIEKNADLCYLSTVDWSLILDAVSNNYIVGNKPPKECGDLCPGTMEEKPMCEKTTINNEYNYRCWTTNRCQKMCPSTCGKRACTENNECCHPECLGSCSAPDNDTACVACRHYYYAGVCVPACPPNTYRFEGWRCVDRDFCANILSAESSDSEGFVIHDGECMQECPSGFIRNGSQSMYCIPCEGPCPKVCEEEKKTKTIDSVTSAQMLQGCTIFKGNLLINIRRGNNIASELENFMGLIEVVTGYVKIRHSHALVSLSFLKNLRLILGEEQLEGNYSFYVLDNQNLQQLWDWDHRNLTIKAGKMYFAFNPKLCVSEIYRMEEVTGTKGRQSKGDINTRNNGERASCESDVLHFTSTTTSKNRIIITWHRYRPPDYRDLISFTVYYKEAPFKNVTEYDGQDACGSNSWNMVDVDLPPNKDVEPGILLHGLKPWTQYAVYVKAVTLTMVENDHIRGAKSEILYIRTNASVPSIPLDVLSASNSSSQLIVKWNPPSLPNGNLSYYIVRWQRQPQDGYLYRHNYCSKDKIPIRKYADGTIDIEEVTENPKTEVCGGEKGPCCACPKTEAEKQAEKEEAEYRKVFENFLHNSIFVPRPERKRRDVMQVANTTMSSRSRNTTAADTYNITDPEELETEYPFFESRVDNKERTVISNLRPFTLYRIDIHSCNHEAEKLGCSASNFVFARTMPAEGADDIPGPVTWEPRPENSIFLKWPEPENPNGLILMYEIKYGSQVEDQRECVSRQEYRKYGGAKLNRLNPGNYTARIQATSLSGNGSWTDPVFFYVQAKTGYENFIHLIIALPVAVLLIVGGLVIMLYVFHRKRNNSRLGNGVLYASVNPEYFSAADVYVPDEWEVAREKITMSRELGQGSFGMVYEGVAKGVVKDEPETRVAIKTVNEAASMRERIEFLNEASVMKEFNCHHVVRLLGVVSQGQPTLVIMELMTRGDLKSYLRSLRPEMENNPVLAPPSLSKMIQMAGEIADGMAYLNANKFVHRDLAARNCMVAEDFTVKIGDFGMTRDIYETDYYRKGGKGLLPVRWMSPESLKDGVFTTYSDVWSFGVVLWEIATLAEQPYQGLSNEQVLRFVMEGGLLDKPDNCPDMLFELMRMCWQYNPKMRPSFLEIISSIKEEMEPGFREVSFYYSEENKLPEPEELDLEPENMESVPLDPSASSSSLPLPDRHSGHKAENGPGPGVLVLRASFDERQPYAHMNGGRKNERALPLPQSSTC
Chain of GSK3B (human) (P49841 whole entry, looked up): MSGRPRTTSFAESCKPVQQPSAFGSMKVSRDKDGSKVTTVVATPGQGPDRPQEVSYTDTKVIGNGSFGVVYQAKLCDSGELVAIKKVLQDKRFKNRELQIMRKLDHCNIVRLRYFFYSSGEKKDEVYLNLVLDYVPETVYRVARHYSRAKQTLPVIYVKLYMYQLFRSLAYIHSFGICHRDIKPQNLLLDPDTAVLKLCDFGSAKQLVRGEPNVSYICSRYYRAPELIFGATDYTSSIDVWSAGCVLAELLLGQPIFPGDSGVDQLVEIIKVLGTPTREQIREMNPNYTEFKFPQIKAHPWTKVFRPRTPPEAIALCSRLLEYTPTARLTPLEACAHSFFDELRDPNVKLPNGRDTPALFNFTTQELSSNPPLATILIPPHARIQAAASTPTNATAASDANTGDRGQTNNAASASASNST
Chain of HIPK3 (human) (Q9H422 whole entry, looked up): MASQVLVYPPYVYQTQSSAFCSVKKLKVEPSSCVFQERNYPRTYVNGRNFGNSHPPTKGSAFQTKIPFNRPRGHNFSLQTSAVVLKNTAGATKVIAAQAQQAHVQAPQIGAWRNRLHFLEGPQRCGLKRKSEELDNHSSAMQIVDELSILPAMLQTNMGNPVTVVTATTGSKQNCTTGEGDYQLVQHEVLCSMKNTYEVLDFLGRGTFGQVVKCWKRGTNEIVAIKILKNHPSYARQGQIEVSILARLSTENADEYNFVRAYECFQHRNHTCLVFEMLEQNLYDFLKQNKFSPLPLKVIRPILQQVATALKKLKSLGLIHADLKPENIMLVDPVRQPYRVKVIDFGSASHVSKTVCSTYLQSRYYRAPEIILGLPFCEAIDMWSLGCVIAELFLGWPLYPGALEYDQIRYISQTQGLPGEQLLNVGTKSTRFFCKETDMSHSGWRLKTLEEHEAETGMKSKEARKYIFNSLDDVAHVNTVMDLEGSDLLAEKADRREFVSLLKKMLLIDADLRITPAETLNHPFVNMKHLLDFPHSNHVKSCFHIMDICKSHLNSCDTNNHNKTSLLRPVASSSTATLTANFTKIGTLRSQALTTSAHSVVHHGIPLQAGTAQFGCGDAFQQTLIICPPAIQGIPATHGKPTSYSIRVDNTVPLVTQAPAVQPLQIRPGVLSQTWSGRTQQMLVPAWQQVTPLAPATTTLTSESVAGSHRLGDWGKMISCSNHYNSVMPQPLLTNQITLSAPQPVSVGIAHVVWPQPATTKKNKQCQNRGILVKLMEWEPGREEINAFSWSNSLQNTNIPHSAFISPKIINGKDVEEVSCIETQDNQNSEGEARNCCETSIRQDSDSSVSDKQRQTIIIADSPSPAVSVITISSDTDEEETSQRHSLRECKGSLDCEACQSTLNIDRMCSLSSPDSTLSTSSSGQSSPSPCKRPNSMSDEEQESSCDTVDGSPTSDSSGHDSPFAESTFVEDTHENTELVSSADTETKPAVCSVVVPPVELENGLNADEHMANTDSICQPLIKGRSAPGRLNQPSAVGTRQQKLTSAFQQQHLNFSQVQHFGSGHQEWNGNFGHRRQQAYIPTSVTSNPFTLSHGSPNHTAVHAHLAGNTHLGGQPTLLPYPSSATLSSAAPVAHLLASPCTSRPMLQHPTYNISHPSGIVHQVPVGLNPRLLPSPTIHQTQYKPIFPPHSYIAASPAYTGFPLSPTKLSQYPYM
Chain of PHKG1 (human) (Q16816 whole entry, looked up): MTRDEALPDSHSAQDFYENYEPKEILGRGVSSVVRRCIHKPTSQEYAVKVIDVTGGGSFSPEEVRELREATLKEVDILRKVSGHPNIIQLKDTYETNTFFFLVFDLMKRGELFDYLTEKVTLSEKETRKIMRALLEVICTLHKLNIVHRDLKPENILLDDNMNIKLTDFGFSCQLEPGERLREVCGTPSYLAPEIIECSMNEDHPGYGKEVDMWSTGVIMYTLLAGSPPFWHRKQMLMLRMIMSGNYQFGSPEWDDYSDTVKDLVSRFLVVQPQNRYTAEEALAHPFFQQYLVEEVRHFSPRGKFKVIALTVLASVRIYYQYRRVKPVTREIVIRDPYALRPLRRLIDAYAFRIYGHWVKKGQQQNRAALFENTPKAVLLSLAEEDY
Chain of MAP2K2 (human) (P36507 whole entry, looked up): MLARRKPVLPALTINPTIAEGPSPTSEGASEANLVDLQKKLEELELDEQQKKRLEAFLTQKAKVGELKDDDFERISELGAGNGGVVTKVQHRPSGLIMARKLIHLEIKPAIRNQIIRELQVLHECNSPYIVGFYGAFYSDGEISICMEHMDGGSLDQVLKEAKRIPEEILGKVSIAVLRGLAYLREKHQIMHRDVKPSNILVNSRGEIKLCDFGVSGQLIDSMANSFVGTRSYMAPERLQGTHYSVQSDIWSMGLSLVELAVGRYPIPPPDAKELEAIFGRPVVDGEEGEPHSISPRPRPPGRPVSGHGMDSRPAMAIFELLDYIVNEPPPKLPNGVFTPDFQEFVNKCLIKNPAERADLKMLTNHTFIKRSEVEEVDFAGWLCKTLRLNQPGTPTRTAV
Chain of PIM1 (human) (P11309 whole entry, looked up): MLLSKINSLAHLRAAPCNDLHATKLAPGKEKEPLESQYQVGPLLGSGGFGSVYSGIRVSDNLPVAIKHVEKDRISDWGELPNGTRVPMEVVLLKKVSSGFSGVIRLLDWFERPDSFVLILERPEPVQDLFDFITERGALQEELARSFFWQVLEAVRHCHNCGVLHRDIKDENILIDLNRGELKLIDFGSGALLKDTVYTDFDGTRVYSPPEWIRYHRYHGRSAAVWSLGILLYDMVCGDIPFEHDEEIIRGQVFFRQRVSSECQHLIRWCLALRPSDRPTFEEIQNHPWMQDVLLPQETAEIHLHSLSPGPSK

- residual activity (BRSK1 (human); compound 1.0 µM): 110%
- residual activity (BRSK1 (human); compound 10.0 µM): 90%
- residual activity (BRSK2 (human); compound 1.0 µM): 92%
- residual activity (BRSK2 (human); compound 10.0 µM): 95%
- residual activity (CAMKK2 (human); compound 1.0 µM): 84%
- residual activity (CAMKK2 (human); compound 10.0 µM): 23%
- residual activity (DAPK1 (human); compound 1.0 µM): 88%
- residual activity (DAPK1 (human); compound 10.0 µM): 18%
- residual activity (DYRK1A (human); compound 1.0 µM): 21%
- residual activity (DYRK1A (human); compound 10.0 µM): 3%
- residual activity (EEF2K (human); compound 1.0 µM): 100%
- residual activity (EEF2K (human); compound 10.0 µM): 101%
- residual activity (EPHB4 (human); compound 1.0 µM): 97%
- residual activity (EPHB4 (human); compound 10.0 µM): 96%
- residual activity (ERBB4 (human); compound 1.0 µM): 88%
- residual activity (ERBB4 (human); compound 10.0 µM): 73%
- residual activity (FGFR1 (human); compound 1.0 µM): 105%
- residual activity (FGFR1 (human); compound 10.0 µM): 61%
- residual activity (GSK3B (human); compound 1.0 µM): 38%
- residual activity (GSK3B (human); compound 10.0 µM): 10%
- residual activity (HIPK3 (human); compound 1.0 µM): 96%
- residual activity (HIPK3 (human); compound 10.0 µM): 10%
- residual activity (IGF1R (human); compound 1.0 µM): 107%
- residual activity (IGF1R (human); compound 10.0 µM): 95%
- residual activity (IKBKE (human); compound 1.0 µM): 89%
- residual activity (IKBKE (human); compound 10.0 µM): 69%
- residual activity (MAP2K2 (human); compound 1.0 µM): 81%
- residual activity (MAP2K2 (human); compound 10.0 µM): 75%
- residual activity (MAP2K6 (human); compound 1.0 µM): 104%
- residual activity (MAP2K6 (human); compound 10.0 µM): 99%
- residual activity (MAP3K5 (human); compound 1.0 µM): 104%
- residual activity (MAP3K5 (human); compound 10.0 µM): 112%
- residual activity (MAPK12 (human); compound 1.0 µM): 86%
- residual activity (MAPK12 (human); compound 10.0 µM): 65%
- residual activity (MAPK13 (human); compound 1.0 µM): 92%
- residual activity (MAPK13 (human); compound 10.0 µM): 54%
- residual activity (MAPK3 (human); compound 1.0 µM): 97%
- residual activity (MAPK3 (human); compound 10.0 µM): 78%
- residual activity (MAPK9 (human); compound 1.0 µM): 99%
- residual activity (MAPK9 (human); compound 10.0 µM): 85%
- residual activity (MAPKAPK2 (human); compound 1.0 µM): 93%
- residual activity (MAPKAPK2 (human); compound 10.0 µM): 85%
- residual activity (MAPKAPK5 (human); compound 1.0 µM): 104%
- residual activity (MAPKAPK5 (human); compound 10.0 µM): 56%
- residual activity (MARK1 (human); compound 1.0 µM): 89%
- residual activity (MARK1 (human); compound 10.0 µM): 78%
- residual activity (MELK (human); compound 1.0 µM): 77%
- residual activity (MELK (human); compound 10.0 µM): 62%
- residual activity (MKNK1 (human); compound 1.0 µM): 100%
- residual activity (MKNK1 (human); compound 10.0 µM): 84%
- residual activity (PAK7 (human); compound 1.0 µM): 81%
- residual activity (PAK7 (human); compound 10.0 µM): 66%
- residual activity (PHKG1 (human); compound 1.0 µM): 100%
- residual activity (PHKG1 (human); compound 10.0 µM): 84%
- residual activity (PIM1 (human); compound 1.0 µM): 70%
- residual activity (PIM1 (human); compound 10.0 µM): 18%
- residual activity (PIM2 (human); compound 1.0 µM): 85%
- residual activity (PIM2 (human); compound 10.0 µM): 14%
- residual activity (PIM3 (human); compound 1.0 µM): 79%
- residual activity (PIM3 (human); compound 10.0 µM): 21%
- residual activity (PRKAA1 or PRKAA2 (rat); compound 1.0 µM): 77%
- residual activity (PRKAA1 or PRKAA2 (rat); compound 10.0 µM): 49%
- residual activity (PRKACA (human); compound 1.0 µM): 108%
- residual activity (PRKACA (human); compound 10.0 µM): 72%
- residual activity (PRKCZ (human); compound 1.0 µM): 100%
- residual activity (PRKCZ (human); compound 10.0 µM): 67%
- residual activity ([1]; compound 1.0 µM): 100%
- residual activity ([1]; compound 10.0 µM): 68%
- residual activity (STK3 (human); compound 1.0 µM): 98%
- residual activity (STK3 (human); compound 10.0 µM): 75%
- residual activity (SYK (human); compound 1.0 µM): 107%
- residual activity (SYK (human); compound 10.0 µM): 95%
SMILES: NC(=O)c1ccc(-c2ccc(Oc3cncc4sc(-c5nn[nH]n5)cc34)cc2)cc1

- residual activity (BRSK1 (human); compound 100.0 µM): 76%
- residual activity (BRSK2 (human); compound 100.0 µM): 46%
- residual activity (CAMKK2 (human); compound 100.0 µM): 99%
- residual activity (DAPK1 (human); compound 100.0 µM): 82%
- residual activity (DYRK1A (human); compound 100.0 µM): 113%
- residual activity (EEF2K (human); compound 100.0 µM): 92%
- residual activity (EPHB4 (human); compound 100.0 µM): 123%
- residual activity (ERBB4 (human); compound 100.0 µM): 99%
- residual activity (FGFR1 (human); compound 100.0 µM): 59%
- residual activity (GSK3B (human); compound 100.0 µM): 31%
- residual activity (HIPK3 (human); compound 100.0 µM): 74%
- residual activity (IGF1R (human); compound 100.0 µM): 109%
- residual activity (IKBKE (human); compound 100.0 µM): 94%
- residual activity (MAP2K2 (human); compound 100.0 µM): 109%
- residual activity (MAP2K6 (human); compound 100.0 µM): 113%
- residual activity (MAP3K5 (human); compound 100.0 µM): 151%
- residual activity (MAPK12 (human); compound 100.0 µM): 108%
- residual activity (MAPK13 (human); compound 100.0 µM): 109%
- residual activity (MAPK3 (human); compound 100.0 µM): 98%
- residual activity (MAPK9 (human); compound 100.0 µM): 112%
- residual activity (MAPKAPK2 (human); compound 100.0 µM): 107%
- residual activity (MAPKAPK5 (human); compound 100.0 µM): 70%
- residual activity (MARK1 (human); compound 100.0 µM): 99%
- residual activity (MELK (human); compound 100.0 µM): 87%
- residual activity (MKNK1 (human); compound 100.0 µM): 99%
- residual activity (PAK7 (human); compound 100.0 µM): 87%
- residual activity (PHKG1 (human); compound 100.0 µM): 86%
- residual activity (PIM1 (human); compound 100.0 µM): 62%
- residual activity (PIM2 (human); compound 100.0 µM): 58%
- residual activity (PIM3 (human); compound 100.0 µM): 45%
- residual activity (PRKAA1 or PRKAA2 (rat); compound 100.0 µM): 71%
- residual activity (PRKACA (human); compound 100.0 µM): 90%
- residual activity (PRKCZ (human); compound 100.0 µM): 97%
- residual activity ([1]; compound 100.0 µM): 52%
- residual activity (STK3 (human); compound 100.0 µM): 81%
- residual activity (SYK (human); compound 100.0 µM): 103%
SMILES: Cc1cc(N=Nc2cc(S(=O)(=O)O)c(C)cc2C)c(N)cc1O
